# According to patent US11780830B2, “Triazolone derivatives or salts thereof and pharmaceutical compositions comprising the same” (YUHAN CORPORATION, priority 2018, dated 2023):
# Structures can show the parent of a compound that is named as a salt.
# Legend:
# Format in all cases: biochemical
# [1] = molecular target: T1, recombinant human MAO-B (monoamine oxidase-B) (Homo sapiens, UniProt P27338); assay: Activity on recombinant human MAO-B, method similar to the VAP-1 assay; conditions: substrate 1 mM benzylamine; read-out: Inhibitory Activity (IC50, nM) MAO-B
# T1 construct: purchased Sigma-Aldrich
# T1 sequence (P27338 1-520): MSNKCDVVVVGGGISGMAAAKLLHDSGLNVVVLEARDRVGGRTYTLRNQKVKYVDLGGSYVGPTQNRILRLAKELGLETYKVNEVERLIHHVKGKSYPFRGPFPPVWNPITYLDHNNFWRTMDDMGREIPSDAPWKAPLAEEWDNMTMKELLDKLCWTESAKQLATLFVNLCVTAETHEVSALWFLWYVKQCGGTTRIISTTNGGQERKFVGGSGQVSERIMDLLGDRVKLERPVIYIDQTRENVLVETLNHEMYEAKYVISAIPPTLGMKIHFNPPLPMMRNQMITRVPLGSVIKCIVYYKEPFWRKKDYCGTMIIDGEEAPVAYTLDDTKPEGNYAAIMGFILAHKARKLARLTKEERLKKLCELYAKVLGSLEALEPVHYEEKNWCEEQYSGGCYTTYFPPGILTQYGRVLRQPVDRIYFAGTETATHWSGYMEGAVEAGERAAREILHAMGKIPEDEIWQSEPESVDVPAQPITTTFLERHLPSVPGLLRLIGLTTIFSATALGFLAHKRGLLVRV
# Procedure, shortened: (§1)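 8-point, 1:3 dose-response, four-parameter logistic IC50 from reduction in fluorescence rate versus DMSO control. HRP/Amplex Red detection of H2O2 (ex 544, em 590 nm) after 30 min, 37 °C compound–enzyme preincubation in pH 7.4 phosphate buffer. MAO-A substrate: 0.5 mM tyramine; MAO-B: 1 mM benzylamine.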
# [2] = molecular target: T2, recombinant human MAO-A (monoamine oxidase-A) (Homo sapiens, UniProt P21397); assay: Activity on recombinant human MAO-A, method similar to the VAP-1 assay; conditions: substrate 0.5 mM tyramine; read-out: Inhibitory Activity (IC50, nM) MAO-A
# T2 construct: purchased Sigma-Aldrich
# T2 sequence (P21397 1-527): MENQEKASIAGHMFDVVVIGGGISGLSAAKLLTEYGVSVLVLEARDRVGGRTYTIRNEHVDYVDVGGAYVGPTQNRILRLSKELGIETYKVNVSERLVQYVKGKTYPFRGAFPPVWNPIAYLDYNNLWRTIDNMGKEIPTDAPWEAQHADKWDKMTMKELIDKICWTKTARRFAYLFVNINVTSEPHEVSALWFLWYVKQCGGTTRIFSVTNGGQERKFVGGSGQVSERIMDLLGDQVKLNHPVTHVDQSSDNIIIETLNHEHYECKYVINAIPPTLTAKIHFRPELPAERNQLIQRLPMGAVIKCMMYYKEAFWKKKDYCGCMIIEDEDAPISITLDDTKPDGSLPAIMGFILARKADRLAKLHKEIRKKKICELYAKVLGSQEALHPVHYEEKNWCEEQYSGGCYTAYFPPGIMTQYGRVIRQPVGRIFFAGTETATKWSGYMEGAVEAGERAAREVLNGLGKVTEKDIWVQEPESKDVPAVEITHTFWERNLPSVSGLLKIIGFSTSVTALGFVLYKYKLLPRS
# Procedure, shortened: as §1
# [3] = molecular target: T3, recombinant human DAO (diamine oxidase) (Homo sapiens, UniProt P19801); assay: Activity on recombinant human DAO, method similar to the VAP-1 assay; conditions: substrate 1 mM putrescine; read-out: Inhibitory Activity (IC50, nM) DAO
# T3 construct: purchased R&D systems
# T3 sequence (P19801 20-751): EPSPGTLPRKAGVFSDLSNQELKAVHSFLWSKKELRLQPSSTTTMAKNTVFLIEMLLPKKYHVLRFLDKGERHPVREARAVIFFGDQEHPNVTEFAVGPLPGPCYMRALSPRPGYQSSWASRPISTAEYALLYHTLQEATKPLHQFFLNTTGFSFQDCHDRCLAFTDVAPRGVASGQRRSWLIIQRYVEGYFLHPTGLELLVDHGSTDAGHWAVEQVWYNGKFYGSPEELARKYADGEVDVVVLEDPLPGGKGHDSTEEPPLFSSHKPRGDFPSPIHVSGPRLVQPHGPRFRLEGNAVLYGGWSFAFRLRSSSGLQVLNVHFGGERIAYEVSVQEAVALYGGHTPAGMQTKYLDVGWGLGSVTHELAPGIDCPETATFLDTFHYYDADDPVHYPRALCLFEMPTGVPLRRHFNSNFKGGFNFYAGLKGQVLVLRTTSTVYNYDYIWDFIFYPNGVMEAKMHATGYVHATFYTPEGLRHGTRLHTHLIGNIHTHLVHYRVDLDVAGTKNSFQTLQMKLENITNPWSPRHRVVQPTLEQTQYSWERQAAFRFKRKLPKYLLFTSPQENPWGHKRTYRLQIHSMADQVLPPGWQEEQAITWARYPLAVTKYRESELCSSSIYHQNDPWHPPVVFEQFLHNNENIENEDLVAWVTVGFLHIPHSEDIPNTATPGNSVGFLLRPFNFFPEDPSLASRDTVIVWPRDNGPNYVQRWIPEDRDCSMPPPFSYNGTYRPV
# Procedure, shortened: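 Inhibition of recombinant human diamine oxidase (DAO, R&D systems) was assessed by the same approach as the VAP-1 assay, using 1 mM putrescine as substrate. Hydrogen peroxide formed was detected through an HRP-coupled Amplex Red reaction yielding fluorescent resorufin, read at 544 nm excitation and 590 nm emission. IC50 values came from four-parameter logistic fitting in GraphPad Prism.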
# [4] = molecular target: T4, recombinant human VAP-1 (Homo sapiens, UniProt Q16853); assay: Activity on recombinant human VAP-1, HRP-coupled Amplex Red hydrogen peroxide assay; conditions: substrate 1 mM benzylamine; compound incubated with enzyme at 37° C. for 30 minutes; pH 7.4; read-out: Inhibitory Activity (IC50, nM) human VAP-1
# T4 construct: purchased R&D systems
# T4 sequence (Q16853 1-763): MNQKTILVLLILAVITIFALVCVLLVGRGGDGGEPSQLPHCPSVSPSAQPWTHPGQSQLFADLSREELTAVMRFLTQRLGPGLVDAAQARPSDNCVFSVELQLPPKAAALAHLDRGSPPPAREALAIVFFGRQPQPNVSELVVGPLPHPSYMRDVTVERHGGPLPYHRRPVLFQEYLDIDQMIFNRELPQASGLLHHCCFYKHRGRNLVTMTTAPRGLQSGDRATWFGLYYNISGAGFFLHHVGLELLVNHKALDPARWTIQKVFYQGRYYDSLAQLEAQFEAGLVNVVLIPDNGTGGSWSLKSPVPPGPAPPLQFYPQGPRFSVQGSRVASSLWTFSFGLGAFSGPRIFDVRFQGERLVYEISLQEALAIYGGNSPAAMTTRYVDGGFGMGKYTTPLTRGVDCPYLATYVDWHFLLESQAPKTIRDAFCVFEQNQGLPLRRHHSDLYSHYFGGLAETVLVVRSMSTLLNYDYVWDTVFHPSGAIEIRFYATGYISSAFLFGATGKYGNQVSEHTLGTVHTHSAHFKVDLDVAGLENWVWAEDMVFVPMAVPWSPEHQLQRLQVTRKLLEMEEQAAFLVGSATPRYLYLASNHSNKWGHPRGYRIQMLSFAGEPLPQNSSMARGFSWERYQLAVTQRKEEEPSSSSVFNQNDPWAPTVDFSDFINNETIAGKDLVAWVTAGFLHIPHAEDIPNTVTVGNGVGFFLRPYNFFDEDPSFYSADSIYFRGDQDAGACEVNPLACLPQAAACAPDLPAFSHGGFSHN
# Procedure, shortened: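 Compounds were preincubated with purified enzyme in 50 mM sodium phosphate pH 7.4 at 37 °C for 30 min, then 200 uM Amplex Red, 1 mM benzylamine and 1 U/mL HRP were added. Resorufin fluorescence (ex 544/em 590 nm) was followed over 1-2 h; IC50 came from 4-parameter fits of signal-rate inhibition.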
SMILES,IC50 [1],IC50 [2],IC50 [3],IC50 [4]
"CN1CC=C(c2ccc(Cn3cnn(C/C(=C/F)CN)c3=O)s2)CC1 [Example 58, 2-[(2E)-2-(aminomethyl)-3-fluoroprop-2-en-1-yl]-4-[5-(1-methyl-1,2,3,6-tetrahydropyridin-4-yl)thiophen-2-yl]methyl-2,4-dihydro-3H-1,2,4-triazol-3-one hydrochloride]",> 10000 nM,> 100000 nM,780 nM,3.9 nM
"CC(=O)N1CC=C(c2ccc(Cn3cnn(C/C(=C/F)CN)c3=O)s2)CC1 [Example 59, 4-[[5-(1-acetyl-3,6-dihydro-2H-pyridin-4-yl)-2-thienyl]methyl]-2-[(E)-2-(aminomethyl)-3-fluoro-allyl]-1,2,4-triazol-3-one]",990 nM,> 100000 nM,1300 nM,0.5 nM
"NC/C(=C/F)Cn1ncn(Cc2ccc(-c3ccc4c(c3)OCO4)s2)c1=O [Example 60, 2-[(2Z)-2-(aminomethyl)-3-fluoroprop-2-en-1-yl]-4-[5-(1,3-benzodioxol-5-yl)thiophen-2-yl]methyl-2,4-dihydro-3H-1,2,4-triazol-3-one hydrochloride]",< 100 nM,> 10000 nM,3000 nM,1.8 nM
"NC/C(=C/F)Cn1ncn(Cc2ccc(-c3ccc4nonc4c3)s2)c1=O [Example 61, 2-[(2Z)-2-(aminomethyl)-3-fluoroprop-2-en-1-yl]-4-[5-(2,1,3-benzooxadiazol-5-yl)thiophen-2-yl]methyl-2,4-dihydro-3H-1,2,4-triazol-3-one hydrochloride]",10.1 nM,16000 nM,< 100 nM,1.1 nM
"NC/C(=C\F)Cn1ncn(Cc2ccc(-c3ccc4ocnc4c3)s2)c1=O [Example 62, 2-[(2E)-2-(aminomethyl)-3-fluoroprop-2-en-1-yl]-4-[5-(1,3-benzooxazol-5-yl)thiophen-2-yl]methyl-2,4-dihydro-3H-1,2,4-triazol-3-one hydrochloride]",310 nM,2100 nM,530 nM,3.7 nM
"NC/C(=C\F)Cn1ncn(Cc2ccc(-c3ccc4[nH]ncc4c3)s2)c1=O [Example 63, 2-[(2E)-2-(aminomethyl)-3-fluoroprop-2-en-1-yl]-4-[5-(1H-indazol-5-yl)thiophen-2-yl]methyl-2,4-dihydro-3H-1,2,4-triazol-3-one hydrochloride]",380 nM,67000 nM,1200 nM,0.9 nM
"NC/C(=C\F)Cn1ncn(Cc2ccc(-c3cnc4scnc4c3)s2)c1=O [Example 64, 2-[(2E)-2-(aminomethyl)-3-fluoroprop-2-en-1-yl]-4-[5-([1,3]thiazolo[5,4-b]pyridin-6-yl)thiophen-2-yl]methyl-2,4-dihydro-3H-1,2,4-triazol-3-one hydrochloride]",2200 nM,6700 nM,110 nM,0.7 nM
"NC/C(=C\F)Cn1ncn(Cc2ccc(-c3cnc4[nH]ccc4c3)s2)c1=O [Example 65, 2-[(2E)-2-(aminomethyl)-3-fluoroprop-2-en-1-yl]-4-[5-(1H-pyrrolo[2,3-b]pyridin-5-yl)thiophen-2-yl]methyl-2,4-dihydro-3H-1,2,4-triazol-3-one hydrochloride]",3400 nM,> 100000 nM,1500 nM,0.7 nM

# Other lines, results leading:
IC50 [1],IC50 [2],IC50 [3],IC50 [4],SMILES
1200 nM,> 10000 nM,340 nM,0.5 nM,"NC/C(=C\F)Cn1ncn(Cc2ccc(-c3ccn4ncnc4c3)s2)c1=O [Example 66, 2-[(2E)-2-(aminomethyl)-3-fluoroprop-2-en-1-yl]-4-[5-([1,2,4]triazolo[1,5-a]pyridin-7-yl)thiophen-2-yl]methyl-2,4-dihydro-3H-1,2,4-triazol-3-one hydrochloride]"
11000 nM,> 100000 nM,1200 nM,0.3 nM,"NC/C(=C\F)Cn1ncn(Cc2ccc(-c3ccc4c(c3)C(=O)NC4)s2)c1=O [Example 67, 6-[5-(1-[(2E)-2-(aminomethyl)-3-fluoroprop-2-en-1-yl]-5-oxo-1,5-dihydro-4H-1,2,4-triazol-4-ylmethyl)thiophen-2-yl]-2,3-dihydro-1H-isoindol-1-one hydrochloride]"
1600 nM,> 100000 nM,1000 nM,0.4 nM,"NC/C(=C\F)Cn1ncn(Cc2ccc(-c3ccc4c(c3)CNC4=O)s2)c1=O [Example 68, 5-[5-(1-[(2E)-2-(aminomethyl)-3-fluoroprop-2-en-1-yl]-5-oxo-1,5-dihydro-4H-1,2,4-triazol-4-ylmethyl)thiophen-2-yl]-2,3-dihydro-1H-isoindol-1-one hydrochloride]"
1800 nM,70000 nM,1100 nM,0.1 nM,"NC/C(=C\F)Cn1ncn(Cc2ccc(-c3ccc4c(c3)CC(=O)N4)s2)c1=O [Example 69, 5-[5-(1-[(2E)-2-(aminomethyl)-3-fluoroprop-2-en-1-yl]-5-oxo-1,5-dihydro-4H-1,2,4-triazol-4-ylmethyl)thiophen-2-yl]-1,3-dihydro-2H-indol-2-one hydrochloride]"
